# Reference: patent publication US20220125746A1, “METHOD OF PREVENTING OR TREATING TREATMENT-INDUCED GASTROINTESTINAL INJURY” (priority 2019, published 2022)
# Structures can show the parent of a compound that is named as a salt.
# How the values were obtained:
# [1] = system: primary human colonic organoids; experiment: Human colonic organoids treated with CPT; type: cell-based; settings: PUMAi 50 uM
# Procedure: (§1) Fresh mucosal scrapings from 10 cm of jejunum were washed in cold PBS, resuspended in 700 ul of RNA lysis buffer, and homogenized in a Dounce homogenizer. RNA was isolated using the Quick-RNA MiniPrep kit (Zymo Research) according to the manufacturer's instructions. Organoids were freed from Matrigel using Cell Recovery Solution (Corning), as described in, before RNA isolation. Complementary DNA was generated from 2 ug of total RNA from mice or ˜100 ng of total RNA from colonic organoids and was pooled from three mice or three wells of organoid culture per treatment group using SuperScript III reverse transcriptase (Invitrogen) and random primers. Gene expression was normalized to Gapdh. Representative results are shown, and similar results were obtained in at least three independent experiments. Details on mouse and human primers are found in Tables 1 and 2.
# Surgically resected intestinal tissues were obtained from Health Science Tissue Bank (HSTB) of UPMC Shadyside Hospital and UPMC Presbyterian Hospital. All samples were obtained with informed consent and approval by the University of Pittsburgh Ethics Committee. Human normal colon crypt isolation and organoid development were performed as previously described with modifications. The complete culture medium for normal human colon organoids contains advanced DMEM/F12 (12634-010, Invitrogen) supplemented with 1× penicillin/streptomycin (15140-122, Invitrogen), 10 mM HEPES (15630-106, Invitrogen), 2 mM GlutaMAX (Invitrogen), 1× B27 (17504-044, Invitrogen), 1XN2 (17502-048, Invitrogen), 1 mM N-Acetylcysteine (A0737, Sigma), 10 nM [leu-15]-Gastrin (G9145, Sigma), 10 mM nicotinamide (N0636, Sigma), 10 μM SB202190 (S7067, Sigma), 50 ng/ml recombinant murine EGF (315-09, Peprotech), 0.5 μM A83-01 (2939, Tocris Bioscience), 10 nM PGE2 (22-961-0, Tocris Bioscience), and 50% WRN-conditioned medium (vol/vol). Freshly isolated crypts were cultured with the same medium plus 10 μM Y-27632 and 100 μg/ml Primocin. Organoids 100 p.m or greater in diameter were enumerated on day 6 after CPT treatment. […]
# [2] = system: colon cancer cell lines HCT 116, p53 KO, HT29, SW480, DLD1, PUMA KO; experiment: CPT-induced apoptosis in colon cancer cell lines (nuclear fragmentation assay); type: cell-based, human; settings: CPT 500 nM 24 h, PUMAi 25 uM; p53 WT, null, mutant or PUMA null lines
# Procedure: (FIG. 10A) Structure of the PUMA inhibitor lead compound (PUMAi). (FIG. 10B) Lysates of 293 cells transfected with individual plasmids for 24 hours were mixed in the indicated combinations. Lysates were incubated with vehicle or PUMA inhibitor (PUMAi, 25 μM) for 15 min before immunoprecipitation with an anti-HA antibody. The HA-bound proteins and input were analyzed by western blotting. (FIG. 10C) Lysates of 293 cells transfected with individual plasmids for 24 h were mixed in the indicated combinations. Lysates were incubated with vehicle or PUMA Inhibitor (PUMAi, 25 μM) for 15 min before immunoprecipitation with an anti-HA antibody. The HA-bound proteins and input were analyzed by western blotting. (FIG. 10D) Indicated colon cancer cell lines were treated with camptothecin (CPT, 500 nM) for 24 h. […] Apoptosis was measured by nuclear fragmentation assay. […] (FIG. 10E) Cells were treated as in D for 24 h and analyzed by western blotting. […]
# After treatment, floating and adhering cells were collected and stained in a solution containing 3.7% formaldehyde, 0.5% NP-40, and Hoechst 33258 (10 ug/ml) (Molecular Probes) in PBS. Apoptosis was assessed through microscopic visualization of condensed and fragmented nuclei, as previously described (Yu J. et al., Proc Natl Acad Sci USA (2003) 100:1931-36, incorporated herein by reference). A minimum of 300 cells per treatment were analyzed in triplicate. […]
# PUMA/BCL-xL = biological target: T1, PUMA/BCL-xL (Homo sapiens, UniProt Q9BXH1); experiment: Immunoprecipitation of HA-PUMA / V5-Bcl-xL from 293 lysates; type: binding; settings: 25 uM, 15 min, anti-HA immunoprecipitation, western blot
# T1 construct: expressed in transfected cells; host or cells: HEK293 (human embryonic kidney 293) cells, Lipofectamine 2000; lysates used
# T1 sequence (Q9BXH1 1-193): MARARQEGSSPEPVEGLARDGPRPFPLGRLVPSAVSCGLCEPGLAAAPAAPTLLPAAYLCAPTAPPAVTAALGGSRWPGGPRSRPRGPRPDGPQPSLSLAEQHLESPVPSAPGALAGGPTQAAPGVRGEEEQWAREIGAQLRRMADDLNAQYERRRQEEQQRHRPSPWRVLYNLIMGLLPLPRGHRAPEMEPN
# Procedure: (FIG. 10A) Structure of the PUMA inhibitor lead compound (PUMAi). (FIG. 10B) Lysates of 293 cells transfected with individual plasmids for 24 hours were mixed in the indicated combinations. Lysates were incubated with vehicle or PUMA inhibitor (PUMAi, 25 μM) for 15 min before immunoprecipitation with an anti-HA antibody. The HA-bound proteins and input were analyzed by western blotting. (FIG. 10C) Lysates of 293 cells transfected with individual plasmids for 24 h were mixed in the indicated combinations. Lysates were incubated with vehicle or PUMA Inhibitor (PUMAi, 25 μM) for 15 min before immunoprecipitation with an anti-HA antibody. The HA-bound proteins and input were analyzed by western blotting. (FIG. 10D) Indicated colon cancer cell lines were treated with camptothecin (CPT, 500 nM) for 24 h. HCT 116 cells and PUMA KO HCT 116 cells have WT p53, others have no (KO) or mutant p53. Apoptosis was measured by nuclear fragmentation assay. Values are mean+SEM; n=3 independent experiments. (FIG. 10E) Cells were treated as in D for 24 h and analyzed by western blotting. Representative results are shown, and similar results were obtained in at least three independent experiments. […]
# LGR5+ stem cells = experiment: LGR5+ stem cells, niche and DNA damage after CPT-11 in mice; type: in vivo, mouse
# Procedure: LGR5(GFP)/TUNEL IF. Sections were prepared as described above. […] Sections were then washed in PBS, and TUNEL staining was performed with the ApopTag Fluorescein In Situ Apoptosis Detection Kit (Chemicon) according to the manufacturer's instructions (37, 46).
# CD166 IF. Sections were prepared as described above.
# p53 BP1 IF: Sections were prepared as described above. […] Sections were then incubated with AlexaFluor-594 goat anti-rabbit secondary antibodies (1:200; A11012; Invitrogen) for 1 hour at room temperature and counterstained with VectaShield plus DAPI.
# as §1
compound,measurement,setting,value
"OCCN1CCN(CC(O)COc2ccc3ccccc3c2)CC1 (centres unmarked) [PUMAi, 1-[4-(2-hydroxyethyl)-1-piperazinyl]-3-(2-naphthyloxy)-2-propanol dihydrochloride]",CPT-induced caspase-3 activation,[1]; 24 h after CPT,inhibited CPT-induced caspase-3 activation
same,CPT-induced expression of WNT and NOTCH targets,[1]; 24 h after CPT,suppressed CPT-induced expression of WNT and NOTCH targets
same,organoid growth after CPT,"[1]; CPT 500 nM 24 h, day 6",enhanced organoid growth
same,camptothecin (CPT)-induced apoptosis in colon cancer cell lines,[2],did not reduce camptothecin (CPT)-induced apoptosis
same,inhibition of PUMA/BCL-xL interaction,PUMA/BCL-xL,inhibit interaction of PUMA/BCL-xL
same,crypt DNA damage by 53BP1 foci,"LGR5+ stem cells; 6 hours after single CPT-11 dose, vs control group",comparable
same,crypt DNA damage by 53BP1 foci,"LGR5+ stem cells; 48 hours after a single dose, more so 120 hours after three doses of CPT-11",lower
same,decrease of CPT-11-induced apoptosis of LGR5+ cells,"LGR5+ stem cells; LGR5-EGFP reporter mice, CPT-11 200 mg/kg, PUMAi 10 mg/kg 2 h before",> 70%
same,suppression of TA marker CD44 mRNA,"LGR5+ stem cells; after CPT-11, intestinal mucosa",not by PUMAi
same,activation of WNT and NOTCH responsive genes (qRT-PCR),LGR5+ stem cells; as early as 6 hours after CPT-11,largely suppressed
same,CPT-11-induced expansion of CD166+ cells,LGR5+ stem cells; by 96 hours,fully suppressed
